Paper PMC13077603, “Fluorine‐18‐Labeled Nucleotide Analogs Targeting Ecto‐5'‐Nucleotidase (CD73) for Positron Emission Tomography Imaging of Solid Tumors” (Angewandte Chemie (International Ed. in English), 2026)

Experiments:
[1] = biological target: T1, Soluble recombinant human CD73 (Homo sapiens, UniProt P21589); assay: CD73 enzyme inhibition assay, soluble recombinant human CD73; type: biochemical; conditions: soluble recombinant human CD73, Km 17 µM, substrate AMP (5 µM)
T1 sequence (P21589 27-549 limits assumed): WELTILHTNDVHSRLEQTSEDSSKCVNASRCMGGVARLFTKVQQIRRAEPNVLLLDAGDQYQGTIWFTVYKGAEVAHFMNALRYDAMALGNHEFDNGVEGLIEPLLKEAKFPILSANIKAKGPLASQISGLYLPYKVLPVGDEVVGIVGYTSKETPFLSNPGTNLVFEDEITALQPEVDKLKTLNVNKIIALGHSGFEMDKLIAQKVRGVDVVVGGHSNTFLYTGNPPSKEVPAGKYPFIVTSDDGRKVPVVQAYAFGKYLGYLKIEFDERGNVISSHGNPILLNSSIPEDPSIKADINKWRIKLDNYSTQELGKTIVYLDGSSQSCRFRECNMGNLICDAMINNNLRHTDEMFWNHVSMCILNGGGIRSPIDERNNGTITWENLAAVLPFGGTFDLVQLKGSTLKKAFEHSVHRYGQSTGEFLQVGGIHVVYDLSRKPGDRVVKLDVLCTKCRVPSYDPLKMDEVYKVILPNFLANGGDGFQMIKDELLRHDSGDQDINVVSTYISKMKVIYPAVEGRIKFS
Procedure: Both compounds were evaluated for metabolic stability in mouse liver microsomes (MLM) and plasma protein binding (PPB) (Table 1).
The CD73 enzyme inhibition assay of recombinant soluble CD73, membrane-bound human CD73, soluble rat CD73 and mouse CD73 was performed as previously described.^[16,35^]

[2] = logD7.4 determination of radiotracers (PBS/octan-1-ol); type: physicochemical; conditions: octan-1-ol/PBS; PBS pH 7.4 / octan-1-ol, radiotracer
Procedure: The logD 7.4 values of both radiotracers were determined using a previously described method based on their distribution between phosphate‐buffered saline (PBS) and octan‐1‐ol.
Triazole radiotracers (~400 kBq) in PBS buffer (10 µL, pH 7.4) were added to PBS buffer (590 µL, pH 7.4) and octan-1-ol (600 µL). The two-layer mixture was shaken for 3 min on a vortex mixer at r.t. and centrifuged (200 g) for 5 min. The main part of the octanol layer (400 µL) was carefully collected and transferred to a new tube containing PBS buffer (400 µL, pH 7.4). The two-layer mixture was shaken again for 10 min and centrifuged for 5 min (200 g). Three samples were prepared, and two aliquots (á 100 µL) of both layers were measured in a gamma-counter 2480 Wizard2 (Perkin-Elmer, Waltham, USA). The partition coefficient was determined by dividing cpm (octanol) by cpm (PBS) and indicated as logD7.4 (exp.).

[3] = tested on: MDA‐MB‐231 tumor; assay: PET imaging in MDA-MB-231 breast cancer xenograft model; type: in vivo, NSG mice
Procedure: Given the specificity of [^18F]1 and [^18F]2 and the promising in vivo biodistribution profile of [^18F]1, we established a small‐animal human breast tumor xenograft model in NSG mice subcutaneously implanted with MDA‐MB‐231 cells. […] For blocking studies, PSB‐12651 (15, Figure 6) or unlabeled 1 were used.
FIGURE 6 PET imaging data in an MDA‐MB‐231 tumor mouse model. (A). PET images, CT scans, and merged images of [^18F]2 in the MDA‐MB‐231 tumor mouse model 90 min after tracer injection. White arrows mark the tumor positions. (B). Quantitative PET analysis of [^18F]2 uptake: activity concentration of [^18F]2 in muscle and tumor tissues 90 min after tracer injection (left) and respective tumor‐to‐muscle ratio (right, n = 5 tumors). (C). PET‐CT images of [^18F]1 and [^18F]FDG in the MDA‐MB‐231 tumor mouse model, 260 min ([^18F]1), or 75 min ([^18F]FDG) after injection. […] White arrows mark the positions of tumors. (D). Quantitative PET analysis of [^18F]1 uptake: activity concentration of [^18F]1 and [^18F]FDG in muscle and tumor tissues (left) and tumor‐to‐muscle ratios (right) after 260 min. [^18F]1: n = 18 tumors, [^18F]1 plus unlabeled 1 block: n = 8 tumors, [^18F]1 plus compound 15 block: n = 6 tumors, [^18F]FDG: n = 18 tumors E. Ex vivo analysis of [^18F]1 uptake as measured by gamma counter: activity concentrations of [^18F]1 in muscle and tumor tissues after 260 min without and with blocking (left) and tumor‐to‐muscle ratios (right). [^18F]1: n = 6 tumors, [^18F]1 plus unlabeled 1 block: n = 6 tumors, [^18F]1 plus compound 15 block: n = 5 tumors.^# relative to the respective muscle, *relative to [^18F]1 without blocker, relative to the unblocked tumor; *<0.05; **<0.01, ***<0.001,^#<0.05; ^## <0.01, ^###<0.001, <0.05; <0.01, <0.001, ns: non‐significant, unpaired t‐test.
MDA-MB-231 cells were cultivated in DMEM/GlutaMAX, supplemented with 10 % fetal calf serum, 100 U/mL penicillin, and 100 µg/mL streptomycin and L-glutamine to a final concentration of 8 mmol/L. AsPC-1 cells were cultivated in RPMI, supplemented with 10 % fetal calf serum, 100 U/mL penicillin, and 100 µg/mL streptomycin and L-glutamine to a final concentration of 8 mmol/L. 5 x 10^6 MDA-MB-231 or 1x 10^6 AsPC-1 cells were injected subcutaneously into the shoulder region of 7 to 12 weeks old NSG (NOD.Cg-Prkdc^scid Il2rg^tm1Wjl/SzJ) mice (Charles River Laboratories). Two tumors were inoculated per animal, and growth was followed by digital caliper measurements (volume = ½ (length * width^2)).
Adult C57bl/6 (biodistribution study, 19.8±1.3 g) or tumor-bearing NSG mice (22.2±2.2 g) were anesthetized by isoflurane/O2, and one lateral tail vein was cannulated using a 27 G needle. A respective radiotracer (~ 390 kBq/g body weight) was injected as a bolus via the tail vein, and subsequent PET scanning was performed. A ~1000-fold excess of unlabeled JMS0414 (14 for [^18F]MRS-4648 ([^18F]2)), unlabeled PSB-19427 (1), or PSB-12651 (15) (for [^18F]PSB-19427 ([^18F]1)) was injected into a subgroup of tumor-bearing mice 10 min before radiotracer injection in the blocking studies. PET imaging studies were carried out using a submillimeter high resolution (0.7 mm full width at half-maximum) small animal scanner (32 module quadHIDAC, Oxford Positron Systems Ltd., Oxford, UK) with a uniform spatial resolution (<1 mm) over a large cylindrical field (165 mm diameter, 280 mm axial length). […]

Ki [1] [nM]	logD [2]	Tumor accumulation ([3]; MDA‐MB‐231 model, 90 min PET)	Muscle uptake ([3]; MDA‐MB‐231 model, PET, after 260 min)	Tumor uptake ([3]; MDA‐MB‐231 tumor, PET, after 260 min)	SMILES
1.02 ± 0.11	-0.12				CCCN(Cc1ccc(-c2cn(CC[18F])nn2)cc1)c1nc(Cl)nc2c1ncn2[C@@H]1O[C@H](COP(=O)(O)CP(=O)(O)O)[C@@H](O)[C@H]1O [[^18F]1, [^18F]-[((2R,3S,4R,5R)-5-{2-chloro-6-[(4-{1-[2-(fluoro)ethyl]-1H-1,2,3-triazol-4-yl}benzyl)-(propyl)amino]-9H-purin-9-yl}-3,4-dihydroxytetrahydrofuran-2-yl)methoxy]methylene-bisphosphonic acid]
0.664 ± 0.089	0.74 ± 0.29	very low tumor accumulation			Cn1c(=O)n([C@@H]2O[C@H](COP(=O)(O)CP(=O)(O)O)[C@@H](O)[C@H]2O)cc/c1=N/OCc1ccc(-c2cn(CC[18F])nn2)cc1 [[^18F]2, [^18F]-{[(2R,3S,4R,5R)-5-(4-{[(4-{1-[2-(fluoro)ethyl]-1H-1,2,3-triazol-4-yl}benzyl)-oxy]imino}-3-methyl-2-oxo-3,4-dihydropyrimidin-1(2H)-yl)-3,4-dihydroxytetra-hydrofuran-2-yl]methoxy}methylenebisphosphonic acid]
1.02	-0.12 ± 0.03		0.86% ± 0.24 % ID/mL	3.60% ± 1.27 %ID/mL	CCCN(Cc1ccc(-c2cn(CCF)nn2)cc1)c1nc(Cl)nc2c1ncn2[C@@H]1O[C@H](COP(=O)(O)CP(=O)(O)O)[C@@H](O)[C@H]1O [compound 1]
